Reference: patent publication US4401660A, “Ester derivatives of 5-O-mycaminosyl tylonolide and method of using same” (Eli Lilly and Company, priority 1981, dated 1983)
Where two headings read alike, the source gives them in different places.

Legend:
[1] = test system: Pasteurella multocida; test: Treatment of Pasteurella infections in chicks (Table V); format: in vivo, one-day-old chicks; conditions: Pasteurella multocida, sc, 4 h; 30 mg/kg by subcutaneous injection one and four hours post challenge; read-out: Deaths in Treated Chicks/Number Treated (converted)
In short: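 One-day-old chicks challenged subcutaneously with avian P. multocida (0.1 ml of 10^-3 dilution of 20-hour tryptose broth culture). Esters given at 30 mg/kg subcutaneously at 1 and 4 hours post challenge. Untreated infected controls, ten per group.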

[2] = test system: Streptococcus pyogenes C203; test: ED50 in mice with experimental infections (Table IV); format: in vivo; conditions: Streptococcus pyogenes, doses given 1 and 4 hours postinfection
Description: The OMT ester derivatives of this invention have shown in vivo antimicrobial activity against experimental bacterial infections caused by gram-positive bacteria. When two doses of test compound were administered to mice with experimental infections, the activity observed was measured as an ED50 value [effective dose in mg/kg to protect 50% of the test animals: see Warren Wick, et al., J. Bacteriol. 81, 233-235 (1961)].
^a mg/kg × 2; doses given 1 and 4 hours postinfection

[3] = test system: Pasteurella multocida 22A; test: MIC, broth-dilution microtiter test (Table III); format: cell-based; set-up: unit not given here
Description: (§1) The MIC's in Table II were determined by standard agar-dilution assays. The MIC's in Table III were obtained using a conventional broth-dilution microtiter test.

[4] = test system: Mycoplasma synoviae; test: MIC, broth-dilution microtiter test (Table III); format: cell-based; set-up: unit not given here
Description: as §1

[5] = test system: Pasteurella haemolytica 22C; test: MIC, broth-dilution microtiter test (Table III); format: cell-based; set-up: unit not given here
Description: as §1

[6] = test system: Pasteurella haemolytica 23C; test: MIC, broth-dilution microtiter test (Table III); format: cell-based; set-up: unit not given here
Description: as §1

[7] = test system: Streptococcus sp. 80; test: MIC, broth-dilution microtiter test (Table III); format: cell-based; set-up: unit not given here
Description: as §1

[8] = test system: Pasteurella multocida 60A; test: MIC, broth-dilution microtiter test (Table III); format: cell-based; set-up: unit not given here; conditions: avian isolate
Description: as §1

[9] = test system: Pasteurella haemolytica 41D; test: MIC, broth-dilution microtiter test (Table III); format: cell-based; set-up: unit not given here
Description: as §1

[10] = test system: Staphylococcus aureus; test: MIC, broth-dilution microtiter test (Table III); format: cell-based; set-up: unit not given here
Description: as §1

[11] = test system: Mycoplasma gallisepticum; test: MIC, broth-dilution microtiter test (Table III); format: cell-based; set-up: unit not given here
Description: as §1

[12] = test system: Mycoplasma hyorhinis; test: MIC, broth-dilution microtiter test (Table III); format: cell-based; set-up: unit not given here
Description: as §1

[13] = test system: Pasteurella multocida 17E; test: MIC, broth-dilution microtiter test (Table III); format: cell-based; set-up: unit not given here; conditions: bovine isolate
Description: as §1

[14] = test system: Pasteurella multocida 68C; test: MIC, broth-dilution microtiter test (Table III); format: cell-based; set-up: unit not given here
Description: as §1

[15] = test system: Staphylococcus epidermidis EPI1; test: MIC, standard agar-dilution assay (Table II); format: cell-based; set-up: unit not given here
Description: as §1

[16] = test system: Haemophilus influenzae Holt; test: MIC, standard agar-dilution assay (Table II); format: cell-based; set-up: unit not given here; conditions: ampicillin-sensitive strain
Description: as §1

[17] = test system: Staphylococcus aureus S13E; test: MIC, standard agar-dilution assay (Table II); format: cell-based; set-up: unit not given here
Description: as §1

[18] = test system: Streptococcus pneumoniae Park I; test: MIC, standard agar-dilution assay (Table II); format: cell-based; set-up: unit not given here
Description: as §1

[19] = test system: Streptococcus pyogenes C203; test: MIC, standard agar-dilution assay (Table II); format: cell-based; set-up: unit not given here
Description: as §1

[20] = test system: Haemophilus influenzae R252; test: MIC, standard agar-dilution assay (Table II); format: cell-based; set-up: unit not given here; conditions: Haemophilus influenzae R252, ampicillin-resistant strain
Description: as §1

[21] = test system: Staphylococcus epidermidis EPI2; test: MIC, standard agar-dilution assay (Table II); format: cell-based; set-up: unit not given here
Description: as §1

[22] = test system: Staphylococcus aureus V41; test: MIC, standard agar-dilution assay (Table II); format: cell-based; set-up: unit not given here; conditions: Staphylococcus aureus V41, penicillin-resistant strain
Description: as §1

[23] = test system: Streptococcus Group D 9960; test: MIC, standard agar-dilution assay (Table II); format: cell-based; set-up: unit not given here
Description: as §1

[24] = test system: Streptococcus Group D X66; test: MIC, standard agar-dilution assay (Table II); format: cell-based; set-up: unit not given here
Description: as §1

[25] = test system: Staphylococcus aureus X400; test: MIC, standard agar-dilution assay (Table II); format: cell-based; set-up: unit not given here; conditions: Staphylococcus aureus X400, methicillin-resistant strain
Description: as §1

[26] = test system: Staphylococcus aureus X1.1; test: MIC, standard agar-dilution assay (Table II); format: cell-based; set-up: unit not given here
Description: as §1

[27] = C203, oral, read-out: ED50, Oral
[28] = C203, sc, subcutaneous, read-out: ED50, Subcutaneous

## CCC1OC(=O)CC(O)C(C)C(OC2OC(C)C(OC(C)=O)C(N(C)C)C2OC(C)=O)C(CC=O)CC(C)C(=O)C=CC(C)=CC1COC(=O)c1ccccc1 (stereo not drawn) [Compound 6, 23-O-Benzoyl-2',4'-Di-O-acetyl-OMT]
[1]
  mortality at 30 mg/kg: 80%
[2]; [27]
  ED50: 146 mg/kg
[2]; [28]
  ED50: > 30 mg/kg
[3]
  minimal inhibitory concentration (MIC): 1.56
[4]
  minimal inhibitory concentration (MIC): 0.39
[5]
  minimal inhibitory concentration (MIC): 6.25
[6]
  minimal inhibitory concentration (MIC): 3.12
[7]
  minimal inhibitory concentration (MIC): 0.195
[8]
  minimal inhibitory concentration (MIC): 0.78
[9]
  minimal inhibitory concentration (MIC): 3.12
[10]
  minimal inhibitory concentration (MIC): 0.39
[11]
  minimal inhibitory concentration (MIC): < 0.05
[12]
  minimal inhibitory concentration (MIC): 0.39
[13]
  minimal inhibitory concentration (MIC): 1.56
[14]
  minimal inhibitory concentration (MIC): 0.78
[15]
  minimal inhibitory concentration (MIC): 0.25
[16]
  minimal inhibitory concentration (MIC): 2
[17]
  minimal inhibitory concentration (MIC): 0.25
[18]
  minimal inhibitory concentration (MIC): 0.06
[19]
  minimal inhibitory concentration (MIC): 0.125
[20]
  minimal inhibitory concentration (MIC): 2
[21]
  minimal inhibitory concentration (MIC): 0.5
[22]
  minimal inhibitory concentration (MIC): 0.25
[23]
  minimal inhibitory concentration (MIC): 0.25
[24]
  minimal inhibitory concentration (MIC): 0.25
[25]
  minimal inhibitory concentration (MIC): 0.25

## CCC1OC(=O)CC(O)C(C)C(OC2OC(C)C(O)C(N(C)C)C2O)C(CC=O)CC(C)C(=O)C=CC(C)=CC1COC(=O)c1ccccc1 (stereo not drawn) [Compound 26, 23-O-Benzoyl-OMT]
[1]
  mortality at 30 mg/kg: 100%
[2]; [27]
  ED50: 136 mg/kg
[2]; [28]
  ED50: 10.6 mg/kg
[3]
  minimal inhibitory concentration (MIC): 1.56
[4]
  minimal inhibitory concentration (MIC): 0.39
[5]
  minimal inhibitory concentration (MIC): 6.25
[6]
  minimal inhibitory concentration (MIC): 3.12
[7]
  minimal inhibitory concentration (MIC): 0.195
[8]
  minimal inhibitory concentration (MIC): 0.78
[9]
  minimal inhibitory concentration (MIC): 6.25
[10]
  minimal inhibitory concentration (MIC): 0.39
[11]
  minimal inhibitory concentration (MIC): < 0.05
[12]
  minimal inhibitory concentration (MIC): 0.39
[13]
  minimal inhibitory concentration (MIC): 1.56
[14]
  minimal inhibitory concentration (MIC): 1.56
[15]
  minimal inhibitory concentration (MIC): 0.25
[16]
  minimal inhibitory concentration (MIC): 2
[17]
  minimal inhibitory concentration (MIC): 0.25
[18]
  minimal inhibitory concentration (MIC): 0.06
[19]
  minimal inhibitory concentration (MIC): 0.125
[20]
  minimal inhibitory concentration (MIC): 2
[21]
  minimal inhibitory concentration (MIC): 0.5
[22]
  minimal inhibitory concentration (MIC): 0.25
[23]
  minimal inhibitory concentration (MIC): 0.25
[24]
  minimal inhibitory concentration (MIC): 0.25
[25]
  minimal inhibitory concentration (MIC): 0.5
[26]
  minimal inhibitory concentration (MIC): 0.25

## CCC1OC(=O)CC(O)C(C)C(OC2OC(C)C(O)C(N(C)C)C2O)C(CC=O)CC(C)C(=O)C=CC(C)=CC1COC(=O)CC(C)C (stereo not drawn) [Compound 22]
[1]
  mortality at 30 mg/kg: 10%
[2]; [27]
  ED50: > 150 mg/kg
[2]; [28]
  ED50: 7.5 mg/kg
[4]
  minimal inhibitory concentration (MIC): < 0.05
[7]
  minimal inhibitory concentration (MIC): 0.097
[8]
  minimal inhibitory concentration (MIC): 3.12
[10]
  minimal inhibitory concentration (MIC): 0.78
[11]
  minimal inhibitory concentration (MIC): < 0.05
[12]
  minimal inhibitory concentration (MIC): 0.78
[13]
  minimal inhibitory concentration (MIC): 1.56
[15]
  minimal inhibitory concentration (MIC): 0.25
[16]
  minimal inhibitory concentration (MIC): 2
[17]
  minimal inhibitory concentration (MIC): 0.25
[18]
  minimal inhibitory concentration (MIC): 0.125
[19]
  minimal inhibitory concentration (MIC): 0.25
[20]
  minimal inhibitory concentration (MIC): 4
[21]
  minimal inhibitory concentration (MIC): 0.25
[22]
  minimal inhibitory concentration (MIC): 0.25
[23]
  minimal inhibitory concentration (MIC): 0.5
[24]
  minimal inhibitory concentration (MIC): 0.5
[25]
  minimal inhibitory concentration (MIC): 0.5
[26]
  minimal inhibitory concentration (MIC): 0.25

## CCC1OC(=O)CC(O)C(C)C(OC2OC(C)C(O)C(N(C)C)C2OC(C)=O)C(CC=O)CC(C)C(=O)C=CC(C)=CC1COC(=O)Cc1ccccc1 (stereo not drawn) [Compound 28]
[1]
  mortality at 30 mg/kg: 80%
[2]; [27]
  ED50: 155 mg/kg
[2]; [28]
  ED50: 6.5 mg/kg
[3]
  minimal inhibitory concentration (MIC): 3.12
[4]
  minimal inhibitory concentration (MIC): < 0.05
[5]
  minimal inhibitory concentration (MIC): 6.25
[6]
  minimal inhibitory concentration (MIC): 3.12
[7]
  minimal inhibitory concentration (MIC): < 0.05
[8]
  minimal inhibitory concentration (MIC): 0.78
[9]
  minimal inhibitory concentration (MIC): 3.12
[10]
  minimal inhibitory concentration (MIC): 0.195
[11]
  minimal inhibitory concentration (MIC): < 0.05
[12]
  minimal inhibitory concentration (MIC): 1.56
[13]
  minimal inhibitory concentration (MIC): 1.56
[14]
  minimal inhibitory concentration (MIC): 0.78
[15]
  minimal inhibitory concentration (MIC): 0.125
[16]
  minimal inhibitory concentration (MIC): 1
[17]
  minimal inhibitory concentration (MIC): 0.125
[18]
  minimal inhibitory concentration (MIC): 0.015
[19]
  minimal inhibitory concentration (MIC): 0.125
[20]
  minimal inhibitory concentration (MIC): 1
[21]
  minimal inhibitory concentration (MIC): 0.125
[22]
  minimal inhibitory concentration (MIC): 0.125
[23]
  minimal inhibitory concentration (MIC): 0.125
[24]
  minimal inhibitory concentration (MIC): 0.125
[25]
  minimal inhibitory concentration (MIC): 0.25
[26]
  minimal inhibitory concentration (MIC): 0.125
